Reference: US20140135310A1, “SULPHONAMIDE DERIVATIVES OF ALICYCLIC AMINES FOR THE TREATMENT OF CENTRAL NERVOUS SYSTEM DISEASES” (Adamed Sp. z o.o., priority 2011, published 2014)

Experiments:
5-HT6 receptor = target: T1, 5-HT6 receptor (Homo sapiens, UniProt P50406); experiment: Radioligand binding assay, serotoninergic 5-HT6 receptors; conditions: binding assay result in %, Table 5a;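 also: test compound at 1 µM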
T1 construct: purchased PerkinElmer
In short: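 Values are Ki from Cheng–Prusoff, taking IC50 from Hill nonlinear regression of competition curves and KD from a Scatchard plot. Specific binding was total minus binding with excess unlabelled ligand. Radioligand displacement was detected by scintillation counting, and data were also reported as percent of control specific binding.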

[1] = target: 5-HT7 serotoninergic receptors (Homo sapiens, UniProt P34969); experiment: Cellular functional assay, 5-HT7 serotoninergic receptors; type: cell-based; conditions: for 5-HT7 ag [%]: agonist mode, percent of control specific agonist response; for 5-HT7 antag [%]: antagonist mode
In short: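 Responses expressed as percent of control specific agonist response; EC50 or IC50 from Hill-equation nonlinear fits of mean replicate concentration-response curves. For antagonists, Kb derived by modified Cheng-Prusoff using reference agonist concentration and its EC50.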

5-HT2C receptor = target: T2, 5-HT2C receptor (Homo sapiens, UniProt P28335); experiment: Radioligand binding assay, serotoninergic 5-HT2C receptors; conditions: test compound 1×10^−6 M
T2 construct: expressed in transfected cells; host or cells: HEK-293 cells
T2 sequence (P28335 33-458): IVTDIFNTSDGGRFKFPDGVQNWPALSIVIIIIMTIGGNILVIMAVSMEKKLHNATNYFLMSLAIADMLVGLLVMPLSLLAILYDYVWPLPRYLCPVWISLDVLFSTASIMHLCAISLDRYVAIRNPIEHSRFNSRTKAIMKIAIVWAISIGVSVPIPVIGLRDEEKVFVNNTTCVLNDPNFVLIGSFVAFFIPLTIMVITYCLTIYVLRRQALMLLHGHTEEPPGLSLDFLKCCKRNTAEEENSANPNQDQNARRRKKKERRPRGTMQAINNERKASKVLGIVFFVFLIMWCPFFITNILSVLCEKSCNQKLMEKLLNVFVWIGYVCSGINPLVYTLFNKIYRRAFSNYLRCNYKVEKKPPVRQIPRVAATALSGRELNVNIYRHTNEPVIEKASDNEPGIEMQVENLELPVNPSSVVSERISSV

[2] = target: T3, serotonin transporter (SERT) (Homo sapiens, UniProt P31645); experiment: Radioligand binding assay, serotonin transporter (SERT); conditions: binding assay, test compound 1×10^−6 M
T3 construct: expressed in transfected cells; host or cells: CHO cells
In short: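 Radioligand competition binding with scintillation detection; specific binding is total minus binding under excess unlabelled ligand. Reported as % of control specific binding or % inhibition; IC50 from Hill-equation non-linear regression of competition curves, and Ki via Cheng-Prusoff using radioligand concentration and Scatchard-derived KD.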

[3] = target: dopaminergic receptors D3 (Homo sapiens, UniProt P35462); experiment: Radioligand binding assay, dopaminergic D3 receptors; conditions: test compound 1×10^−6 M
In short: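 Competition radioligand binding at human D2, D3 and D4.4 receptors, detected by scintillation counting; nonspecific binding defined with excess unlabelled ligand. Results as percent inhibition of control specific binding; IC50 by Hill-equation nonlinear regression; Ki via Cheng-Prusoff, with radioligand KD from Scatchard plot.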

[4] = target: dopaminergic receptors D2 (Homo sapiens, UniProt P14416); experiment: Radioligand binding assay, dopaminergic D2 receptors; conditions: binding assay, test compound 1×10^−6 M
In short: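 Radioligand displacement was measured by scintillation counting, with non-specific binding defined in the presence of excess unlabelled ligand. Competition curves were fitted to the Hill equation to give IC50, and Ki was derived by the Cheng–Prusoff equation.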

α2C adrenergic receptors = target: T4, α2C adrenergic receptors (Homo sapiens, UniProt P18825); experiment: Radioligand binding assay, adrenergic α2C receptors; conditions: test compound 1×10^−6 M
T4 construct: expressed in transfected cells; host or cells: CHO cells
T4 sequence (P18825 1-462): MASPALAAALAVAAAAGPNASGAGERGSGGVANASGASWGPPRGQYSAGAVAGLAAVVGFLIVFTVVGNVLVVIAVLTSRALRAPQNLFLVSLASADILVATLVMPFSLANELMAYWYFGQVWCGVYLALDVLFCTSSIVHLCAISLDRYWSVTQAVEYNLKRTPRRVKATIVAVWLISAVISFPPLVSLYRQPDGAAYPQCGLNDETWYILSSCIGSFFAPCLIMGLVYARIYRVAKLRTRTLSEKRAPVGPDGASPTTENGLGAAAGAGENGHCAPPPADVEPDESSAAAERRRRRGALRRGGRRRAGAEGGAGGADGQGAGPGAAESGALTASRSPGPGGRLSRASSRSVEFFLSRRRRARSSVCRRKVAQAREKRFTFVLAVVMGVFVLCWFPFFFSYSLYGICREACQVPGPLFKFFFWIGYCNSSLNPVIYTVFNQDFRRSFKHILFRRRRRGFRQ
In short: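 Competitive radioligand binding at human α2C receptors, with scintillation counting. Nonspecific binding defined with excess unlabelled ligand; results given as % inhibition of control specific binding. IC50 from Hill-equation fits of competition curves; Ki via Cheng-Prusoff using radioligand concentration and Scatchard-derived KD.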

T1 sequence (P50406 whole entry): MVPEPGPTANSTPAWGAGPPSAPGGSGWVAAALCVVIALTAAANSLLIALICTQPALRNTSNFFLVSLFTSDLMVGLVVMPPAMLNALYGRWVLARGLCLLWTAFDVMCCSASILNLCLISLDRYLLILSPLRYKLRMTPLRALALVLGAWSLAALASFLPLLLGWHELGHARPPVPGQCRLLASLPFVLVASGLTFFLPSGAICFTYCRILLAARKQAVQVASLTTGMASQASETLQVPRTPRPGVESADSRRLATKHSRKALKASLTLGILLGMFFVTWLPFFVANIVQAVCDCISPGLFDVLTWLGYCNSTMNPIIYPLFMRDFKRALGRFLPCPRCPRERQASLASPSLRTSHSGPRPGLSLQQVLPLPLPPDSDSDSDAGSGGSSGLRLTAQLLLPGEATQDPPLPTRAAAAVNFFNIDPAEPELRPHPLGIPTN
dopaminergic receptors D2, sequence (P14416 whole entry): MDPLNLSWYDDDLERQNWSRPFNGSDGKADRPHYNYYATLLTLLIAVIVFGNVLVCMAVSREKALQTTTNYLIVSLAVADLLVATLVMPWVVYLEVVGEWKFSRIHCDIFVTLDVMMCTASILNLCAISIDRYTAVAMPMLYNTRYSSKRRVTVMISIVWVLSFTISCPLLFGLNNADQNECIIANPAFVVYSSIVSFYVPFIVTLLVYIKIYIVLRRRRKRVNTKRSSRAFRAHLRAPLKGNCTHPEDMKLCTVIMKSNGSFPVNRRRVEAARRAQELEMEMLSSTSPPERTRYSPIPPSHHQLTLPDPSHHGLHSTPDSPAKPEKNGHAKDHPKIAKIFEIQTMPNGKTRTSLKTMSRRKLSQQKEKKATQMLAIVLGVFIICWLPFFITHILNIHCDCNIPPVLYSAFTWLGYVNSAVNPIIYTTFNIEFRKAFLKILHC
5-HT7 serotoninergic receptors, sequence (P34969 whole entry): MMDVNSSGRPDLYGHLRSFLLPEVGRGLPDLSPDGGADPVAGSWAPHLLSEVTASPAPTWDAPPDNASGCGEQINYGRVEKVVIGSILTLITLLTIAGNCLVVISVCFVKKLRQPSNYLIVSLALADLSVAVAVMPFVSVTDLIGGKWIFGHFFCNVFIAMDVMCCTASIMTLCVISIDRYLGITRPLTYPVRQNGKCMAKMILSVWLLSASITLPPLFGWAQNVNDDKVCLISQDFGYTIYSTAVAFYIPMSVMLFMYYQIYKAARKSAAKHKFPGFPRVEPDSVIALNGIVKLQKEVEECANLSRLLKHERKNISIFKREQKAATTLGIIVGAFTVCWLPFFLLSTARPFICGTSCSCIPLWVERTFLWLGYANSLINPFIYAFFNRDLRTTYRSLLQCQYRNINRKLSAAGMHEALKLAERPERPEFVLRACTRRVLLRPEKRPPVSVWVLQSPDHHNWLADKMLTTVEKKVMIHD
T3 sequence (P31645 whole entry): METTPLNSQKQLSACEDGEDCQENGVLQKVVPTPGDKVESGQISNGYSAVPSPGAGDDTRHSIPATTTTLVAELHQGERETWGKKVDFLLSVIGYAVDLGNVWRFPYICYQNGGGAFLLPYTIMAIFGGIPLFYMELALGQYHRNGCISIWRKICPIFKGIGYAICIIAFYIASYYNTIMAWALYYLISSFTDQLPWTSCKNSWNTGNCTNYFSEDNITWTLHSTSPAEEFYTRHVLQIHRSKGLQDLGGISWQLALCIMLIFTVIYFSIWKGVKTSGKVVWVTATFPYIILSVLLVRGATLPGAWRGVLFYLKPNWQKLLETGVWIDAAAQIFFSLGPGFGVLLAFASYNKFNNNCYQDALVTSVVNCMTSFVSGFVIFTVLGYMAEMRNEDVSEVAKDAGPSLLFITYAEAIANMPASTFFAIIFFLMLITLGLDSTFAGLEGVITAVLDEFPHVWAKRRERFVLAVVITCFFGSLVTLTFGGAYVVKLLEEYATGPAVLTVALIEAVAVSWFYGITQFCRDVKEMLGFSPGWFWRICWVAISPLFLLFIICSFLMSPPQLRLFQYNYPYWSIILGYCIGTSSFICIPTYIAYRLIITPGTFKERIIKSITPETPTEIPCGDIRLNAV
dopaminergic receptors D3, sequence (P35462 whole entry): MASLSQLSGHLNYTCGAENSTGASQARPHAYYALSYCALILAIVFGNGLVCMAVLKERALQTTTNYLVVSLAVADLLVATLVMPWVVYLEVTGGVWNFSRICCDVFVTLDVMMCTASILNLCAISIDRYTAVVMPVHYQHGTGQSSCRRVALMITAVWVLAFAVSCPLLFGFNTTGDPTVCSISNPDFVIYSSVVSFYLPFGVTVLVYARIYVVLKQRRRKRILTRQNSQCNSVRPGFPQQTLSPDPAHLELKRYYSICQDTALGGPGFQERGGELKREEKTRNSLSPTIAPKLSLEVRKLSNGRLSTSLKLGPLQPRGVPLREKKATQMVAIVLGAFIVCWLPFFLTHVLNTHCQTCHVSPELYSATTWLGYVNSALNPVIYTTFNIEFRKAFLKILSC

Row | Compound | inhibition at 1 µM (5-HT6 receptor) [%] | 5-HT7 ag [%] [1] [%] | inhibition at 1 µM (5-HT2C receptor) [%] | inhibition at 1 µM [2] [%] | inhibition at 1 µM [3] [%] | inhibition at 1 µM [4] [%] | inhibition at 1 µM (α2C adrenergic receptors) [%] | 5-HT6 [%] (5-HT6 receptor) | 5-HT7 antag [%] [1] [%] | 5-HT2C [%] (5-HT2C receptor) | SERT [%] [2] [%] | D3 [%] [3] [%] | D2 [%] [4] [%] | α2C [%] (α2C adrenergic receptors)
1 | O=S(=O)(NCC1CCN(CCCc2noc3cc(F)ccc23)C1)c1cccc2ccccc12 (stereo not drawn) [Compound 239, N-[[1-[3-(6-Fluoro-1,2-benzoxazol-3-yl)propyl]pyrrolidin-3-yl]methyl]naphthalene-1-sulphonamide] | 97 | 1 | 49 | 36 | 76 | 96 | 89 |  |  |  |  |  |  | 
2 | O=S(=O)(NCC1CCN(CCCc2noc3cc(F)ccc23)C1)c1ccc2ccccc2c1 (stereo not drawn) [Compound 240, N-[[1-[3-(6-Fluoro-1,2-benzoxazol-3-yl)propyl]pyrrolidin-3-yl]methyl]-naphthalene-2-sulphonamide] | 93 | 0 | 81 | 43 | 75 | 95 | 84 |  |  |  |  |  |  | 
3 | N-[1-[3-(6-Fluoro-1,2-benzoxazol-3-yl)propyl]pyrrolidin-3-yl]-1-methyl-imidazole-4-sulphonamide [Compound 217] |  | 5 |  |  |  |  |  | 98 | 74 | 67 | 90 | 84 | 96 | 96
4 | N-[[1-[2-[(2,2-Dimethyl-3H-benzofuran-7-yl)oxy]ethyl]azetidin-3-yl]methyl]-3-hydroxy-benzenesulphonamide [Compound 111] |  | 24 |  |  |  |  |  | 41 | 55 | 87 | 15 | 87 | 97 | 90
